From patent publication US10029984B2, “Mono- or di-substituted indole derivatives as dengue viral replication inhibitors” (Janssen Pharmaceuticals, Inc., priority 2015, dated 2018)

Columns and labels:
DENV-2 16681 strain = assay: DENV-2 antiviral assay (eGFP-labeled virus in Vero cells); assay type: cell-based, Dengue virus; conditions: DENV-2 16681 eGFP, MOI 0.5, 3 days
Procedure, shortened: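 Vero cells were pre-plated with compound overnight, then infected with eGFP-labeled DENV-2 16681 at MOI 0.5 and incubated 3 days at 37 °C. eGFP fluorescence read by automated microscopy; 9-point 4-fold dilutions (25 μM–0.00038 μM final) in quadruplicate, EC50 by linear interpolation versus virus and cell controls.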

in vitro [1] = assay type: cell-based; conditions: African green monkey, CC50
Procedure, shortened: (§1)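 On the same plates after eGFP read-out, resazurin was added and cells incubated a further 5 h at 37 °C, 5% CO2; resorufin fluorescence read with 530 nm excitation. CC50 is the concentration halving resazurin conversion versus cell control; SI = CC50/EC50.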

DENV-1 strain TC974#666 = assay: Tetravalent RT-qPCR assay Protocol A, serotype 1; assay type: cell-based; conditions: Dengue virus, DENV1, 72 h; RT-qPCR serotype 1 TC974#666, Vero cells, day 3
Protocol: (§2) The antiviral activity of the compounds of the invention was tested against DENV-1 strain TC974#666 (NCPV; Table 6), DENV-2 strain 16681 (Table 7), DENV-3 strain H87 (NCPV; Table 8) and DENV-4 strains H241 (NCPV; Table 9) in a RT-qPCR assay. Therefore, Vero cells were infected with either DENV-1, or -2, or -3, or -4 in the presence or absence of test compounds. At day 3 post-infection, the cells were lysed and cell lysates were used to prepare cDNA of both a viral target (the 3′UTR of DENV; table 2) and a cellular reference gene (β-actin, table 2). Subsequently, a duplex real time PCR was performed on a Lightcycler480 instrument. The generated Cp value is inversely proportional to the amount of RNA expression of these targets. Inhibition of DENV replication by a test compound result in a shift of Cp's for the 3′UTR gene. On the other hand, if a test compound is toxic to the cells, a similar effect on β-actin expression will be observed. The comparative ΔΔCp method is used to calculate EC50, which is based on the relative gene expression of the target gene (3′UTR) normalized with the cellular housekeeping gene (β-actin).
(§3) The culture medium consisted of minimal essential medium supplemented with 2% of heat-inactivated fetal calf serum, 0.04% gentamycin (50 mg/mL) and 2 mM of L-glutamine. Vero cells, obtained from ECACC, were suspended in culture medium and 75 μL/well was added in 96-well plates (10000 cells/well), which already contain the antiviral compounds. Typically, these plates contain a 4-fold serial dilution of 9 dilution steps of the test compound at 200 times the final concentration in 100% DMSO (500 nL; final concentration range: 25 μM-0.00038 μM). In addition, each plate contains wells which are assigned as virus controls (containing cells and virus in the absence of compound) and cell controls (containing cells in the absence of virus and compound). Once the cells were added in the plates, the plates were incubated in a fully humidified incubator (37° C., 5% CO2) until the next day. Then, DENV-1 strain TC974#666 at an MOI of 0.6, DENV-2 strain 16681 at an MOI of 0.01, DENV-3 strain H87 at an MOI of 1.0 and DENV-4 strains H241 at an MOI of 0.2 and SG/06K2270DK1/2005 at an MOI of 0.16, were added. Therefore, 25 μL of virus suspension was added to all the wells containing test compound and to the wells assigned as virus control. In parallel, 25 μL of culture medium was added to the cell controls. Next, the plates were incubated for 3 days in a fully humidified incubator (37° C., 5% CO2). After 3 days, the supernatant was removed from the wells and the cells were washed twice with ice-cold PBS (˜100 μL). The cell pellets within the 96-well plates were stored at −80° C. for at least 1 day. Next, RNA was extracted using the Cells-to-CT™ lysis kit, according to the manufacture's guideline (Applied Biosystems). The cell lysates can be stored at −80° C. or immediately used in the reverse transcription step.
(§4) In preparation of the reverse transcription step, mix A (table 3A) was prepared and 7.57 μL/well was dispensed in a 96-well plate. After addition of 5 μL of the cell lysates, a five minute denaturation step at 75° C. was performed (table 3B). Afterwards, 7.43 μL of mix B was added (table 3C) and the reverse transcription step was initiated (table 3D) to generate cDNA.
(§5) Finally, a RT-qPCR mix was prepared, mix C (table 4A), dispensed in 96-well LightCycler qPCR plates to which 3 μL of cDNA was added and the qPCR was performed according to the conditions in table 4B on a LightCycler 480. Using the LightCycler software and an in-house LIMS system, dose response curves for each compound were calculated and the half maximal effective concentration (EC50) and the half maximal cytotoxic concentration (CC50) were determined.

DENV-2 strain 16681 = assay: Tetravalent RT-qPCR assay Protocol A, serotype 2; assay type: cell-based; conditions: Dengue virus, DENV2, 72 h; RT-qPCR serotype 2 16681, Vero cells, day 3
Protocol: as §2, §3, §4, §5

DENV-3 strain H87 = assay: Tetravalent RT-qPCR assay Protocol A, serotype 3; assay type: cell-based; conditions: Dengue virus, DENV3, 72 h; RT-qPCR serotype 3 H87, Vero cells, day 3
Protocol: as §2, §3, §4, §5

DENV-4 strains H241 = assay: Tetravalent RT-qPCR assay Protocol A, serotype 4; assay type: cell-based; conditions: Dengue virus, DENV4, 72 h; RT-qPCR serotype 4 H241, Vero cells, day 3
Protocol: as §2, §3, §4, §5

in vitro [2] = assay type: cell-based; conditions: African green monkey, CC50; remark: listed apart in the source
Protocol: as §2, §3, §5

Vero cells [3] = assay: in vitro; assay type: cell-based; conditions: African green monkey
Procedure, shortened: as §1

Vero cells [4] = assay: in vitro; assay type: cell-based; conditions: African green monkey, 3 days
Protocol: as §2, §3, §5

SMILES | EC50 (DENV-2 16681 strain; listed as 2A*) [nM] | CC50 (in vitro [1]) [nM] | EC50 (DENV-1 strain TC974#666) [nM] | EC50 (DENV-2 strain 16681) [nM] | EC50 (DENV-3 strain H87) [nM] | EC50 (DENV-4 strains H241) [nM] | CC50 at 3 days (in vitro [2]) [nM] | EC50 (DENV-2 16681 strain; listed as 9A*) [nM] | CC50 (Vero cells [3]) [nM] | EC50 (DENV-2 16681 strain; listed as 11A*) [nM] | EC50 (DENV-2 16681 strain; listed as 13B*) [nM] | CC50 (Vero cells [4]) [nM] | EC50 (DENV-2 16681 strain; listed as 14A*) [nM] | EC50 (DENV-2 16681 strain; listed as 15A*) [nM] | EC50 (DENV-2 16681 strain; listed as 16A*) [nM] | EC50 (DENV-2 16681 strain; listed as 17B*) [nM] | EC50 (DENV-2 16681 strain; listed as 18A*) [nM]
COc1cc(NC(C(=O)c2c[nH]c3c(C)c(F)ccc23)c2ccc(F)cc2OC)cc(S(C)(=O)=O)c1 (single isomer, unassigned) [Enantiomer 2A, 2-(4-fluoro-2-methoxyphenyl)-1-(6-fluoro-7-methyl-1H-indol-3-yl)-2-((3-methoxy-5-(methylsulfonyl)phenyl)amino)ethanone] | 0.77 | 6100 | 5.85 | 0.856 | 58.4 | 122 | 2920 | – | – | – | – | – | – | – | – | – | –
COc1cc(NC(C(=O)c2c[nH]c3cc(C)c(F)cc23)c2ccc(F)cc2OC)cc(S(C)(=O)=O)c1 (single isomer, unassigned) [Enantiomer 9A, 2-(4-fluoro-2-methoxyphenyl)-1-(5-fluoro-6-methyl-1H-indol-3-yl)-2-((3-methoxy-5-(methylsulfonyl)phenyl)amino)ethanone] | – | – | 10 | 1.14 | 104 | 241 | 4040 | 1.1 | 4800 | – | – | – | – | – | – | – | –
COc1cc(NC(C(=O)c2c[nH]c3cc(OC)c(F)cc23)c2ccc(F)cc2OC)cc(S(C)(=O)=O)c1 (single isomer, unassigned) [Enantiomer 11A, 2-(4-fluoro-2-methoxyphenyl)-1-(5-fluoro-6-methoxy-1H-indol-3-yl)-2-((3-methoxy-5-(methylsulfonyl)phenyl)amino)ethanone] | – | – | 10.9 | 1.09 | 93 | 226 | 4380 | – | 6600 | 1.1 | – | – | – | – | – | – | –
COc1cc(NC(C(=O)c2c[nH]c3c(F)c(F)ccc23)c2ccc(F)cc2OC)cc(S(C)(=O)=O)c1 (single isomer, unassigned) [Enantiomer 13B, 1-(6,7-difluoro-1H-indol-3-yl)-2-(4-fluoro-2-methoxyphenyl)-2-((3-methoxy-5-(methylsulfonyl)phenyl)amino)ethanone] | – | – | – | 0.675 | – | 230 | 3710 | – | 6700 | – | 1.1 | 2600 | – | – | – | – | –
COc1cc(NC(C(=O)c2c[nH]c3cc(F)c(C)cc23)c2ccc(F)cc2OC)cc(S(C)(=O)=O)c1 (single isomer, unassigned) [Enantiomer 14A, 2-(4-fluoro-2-methoxyphenyl)-1-(6-fluoro-5-methyl-1H-indol-3-yl)-2-((3-methoxy-5-(methylsulfonyl)phenyl)amino)ethanone] | – | – | 1.4 | 0.567 | 13.1 | 69.4 | 2420 | – | 3400 | – | – | – | 0.44 | – | – | – | –
COc1cc(NC(C(=O)c2c[nH]c3ccc(C)cc23)c2ccc(F)cc2OC)cc(S(C)(=O)=O)c1 (single isomer, unassigned) [Enantiomer 15A, 2-(4-fluoro-2-methoxyphenyl)-2-((3-methoxy-5-(methylsulfonyl)phenyl)amino)-1-(5-methyl-1H-indol-3-yl)ethanone] | – | – | 3.51 | 1.02 | 22.1 | 91 | > 2500 | – | 5400 | – | – | – | – | 0.8 | – | – | –
COc1cc(NC(C(=O)c2c[nH]c3cc(OC)c(Cl)cc23)c2ccc(F)cc2OC)cc(S(C)(=O)=O)c1 (single isomer, unassigned) [Enantiomer 16A, 1-(5-chloro-6-methoxy-1H-indol-3-yl)-2-(4-fluoro-2-methoxyphenyl)-2-((3-methoxy-5-(methylsulfonyl)phenyl)amino)ethanone] | – | – | 3.26 | 0.188 | 25.4 | 80.1 | 3170 | – | 3700 | – | – | – | – | – | 0.42 | – | –
COc1cc(NC(C(=O)c2c[nH]c3ccc(C(F)(F)F)cc23)c2ccc(F)cc2OC)cc(S(C)(=O)=O)c1 (single isomer, unassigned) [Enantiomer 17B, 2-(4-fluoro-2-methoxyphenyl)-2-((3-methoxy-5-(methylsulfonyl)phenyl)amino)-1-(5-(trifluoromethyl)-1H-indol-3-yl)ethanone] | – | – | 0.478 | 0.0921 | 7.28 | 21.3 | 1610 | – | 3600 | – | – | – | – | – | – | 0.2 | –
COc1cc(NC(C(=O)c2c[nH]c3ccc(OC(F)(F)F)cc23)c2ccc(F)cc2OC)cc(S(C)(=O)=O)c1 (single isomer, unassigned) [Enantiomer 18A, 2-(4-fluoro-2-methoxyphenyl)-2-((3-methoxy-5-(methylsulfonyl)phenyl)amino)-1-(5-(trifluoromethoxy)-1H-indol-3-yl)ethanone] | – | – | 0.357 | 0.14 | 7.54 | 18.2 | 3010 | – | 3100 | – | – | – | – | – | – | – | 0.086
